Assay results as given in ChEMBL document CHEMBL5291721, “A preclinical secondary pharmacology resource illuminates target-adverse drug reaction associations of marketed drugs” (Nat Commun, 2023).
One block for each compound: values may come before it.

Legend:
Histamine H1 receptor = Histamine H1 receptor (Homo sapiens, UniProt P35367); assay type: functional, cell-based
[1] = molecular target: T1, Muscarinic acetylcholine receptor M1 (Homo sapiens, UniProt P11229)
T1 sequence (P11229 whole entry): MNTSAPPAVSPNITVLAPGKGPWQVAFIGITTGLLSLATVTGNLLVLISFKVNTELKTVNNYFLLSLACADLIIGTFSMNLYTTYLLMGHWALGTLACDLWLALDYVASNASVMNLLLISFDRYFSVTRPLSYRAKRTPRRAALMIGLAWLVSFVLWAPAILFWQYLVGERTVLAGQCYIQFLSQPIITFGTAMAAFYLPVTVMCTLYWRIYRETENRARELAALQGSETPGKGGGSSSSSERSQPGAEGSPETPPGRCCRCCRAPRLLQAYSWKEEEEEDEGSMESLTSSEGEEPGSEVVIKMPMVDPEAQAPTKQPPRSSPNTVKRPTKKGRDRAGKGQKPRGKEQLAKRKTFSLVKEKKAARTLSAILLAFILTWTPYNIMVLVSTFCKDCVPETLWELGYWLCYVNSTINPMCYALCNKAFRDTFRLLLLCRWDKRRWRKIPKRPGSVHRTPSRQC

[2] = molecular target: T2, Type-1 angiotensin II receptor (Homo sapiens, UniProt P30556)
T2 sequence (P30556 whole entry): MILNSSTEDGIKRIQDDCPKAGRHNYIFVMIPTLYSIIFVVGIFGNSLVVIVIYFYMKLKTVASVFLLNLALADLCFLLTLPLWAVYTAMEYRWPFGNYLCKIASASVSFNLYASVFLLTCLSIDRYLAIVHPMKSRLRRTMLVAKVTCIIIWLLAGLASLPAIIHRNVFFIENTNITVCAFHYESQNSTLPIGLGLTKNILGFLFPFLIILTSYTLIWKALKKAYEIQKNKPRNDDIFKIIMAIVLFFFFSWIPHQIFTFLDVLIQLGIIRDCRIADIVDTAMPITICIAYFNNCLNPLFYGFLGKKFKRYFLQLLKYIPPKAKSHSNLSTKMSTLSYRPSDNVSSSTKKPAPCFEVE

[3] = molecular target: 5-hydroxytryptamine receptor 2B (Homo sapiens, UniProt P41595)
Sequence of 5-hydroxytryptamine receptor 2B (P41595 whole entry): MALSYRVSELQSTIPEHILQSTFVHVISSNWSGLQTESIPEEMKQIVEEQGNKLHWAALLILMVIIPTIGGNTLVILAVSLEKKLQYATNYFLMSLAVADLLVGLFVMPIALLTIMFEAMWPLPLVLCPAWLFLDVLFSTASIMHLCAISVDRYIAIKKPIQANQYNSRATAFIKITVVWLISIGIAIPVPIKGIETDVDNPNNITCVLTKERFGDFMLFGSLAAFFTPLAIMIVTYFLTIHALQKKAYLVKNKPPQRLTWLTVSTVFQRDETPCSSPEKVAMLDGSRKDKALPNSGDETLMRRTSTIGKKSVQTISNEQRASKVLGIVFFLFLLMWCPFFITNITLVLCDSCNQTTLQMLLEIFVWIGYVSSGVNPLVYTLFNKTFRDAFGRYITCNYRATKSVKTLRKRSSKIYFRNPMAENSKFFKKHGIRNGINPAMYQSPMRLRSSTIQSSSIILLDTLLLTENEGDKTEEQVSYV

[4] = molecular target: T3, Type-2 angiotensin II receptor (Homo sapiens, UniProt P50052); assay type: functional
T3 sequence (P50052 whole entry): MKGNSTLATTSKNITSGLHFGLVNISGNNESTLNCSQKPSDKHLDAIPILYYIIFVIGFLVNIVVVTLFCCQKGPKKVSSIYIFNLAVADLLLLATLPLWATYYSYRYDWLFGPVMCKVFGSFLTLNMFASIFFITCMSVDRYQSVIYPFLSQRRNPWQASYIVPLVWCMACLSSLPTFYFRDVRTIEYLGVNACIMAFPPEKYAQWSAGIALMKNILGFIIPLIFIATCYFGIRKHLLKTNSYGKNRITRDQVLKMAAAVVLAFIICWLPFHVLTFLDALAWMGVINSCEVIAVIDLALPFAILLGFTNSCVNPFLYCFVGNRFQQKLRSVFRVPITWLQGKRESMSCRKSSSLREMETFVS

[5] = molecular target: T1, Muscarinic acetylcholine receptor M1; assay type: functional, cell-based
[6] = molecular target: T4, Prostaglandin G/H synthase 1 (Rattus norvegicus, UniProt Q63921); assay type: functional
T4 sequence (Q63921 whole entry): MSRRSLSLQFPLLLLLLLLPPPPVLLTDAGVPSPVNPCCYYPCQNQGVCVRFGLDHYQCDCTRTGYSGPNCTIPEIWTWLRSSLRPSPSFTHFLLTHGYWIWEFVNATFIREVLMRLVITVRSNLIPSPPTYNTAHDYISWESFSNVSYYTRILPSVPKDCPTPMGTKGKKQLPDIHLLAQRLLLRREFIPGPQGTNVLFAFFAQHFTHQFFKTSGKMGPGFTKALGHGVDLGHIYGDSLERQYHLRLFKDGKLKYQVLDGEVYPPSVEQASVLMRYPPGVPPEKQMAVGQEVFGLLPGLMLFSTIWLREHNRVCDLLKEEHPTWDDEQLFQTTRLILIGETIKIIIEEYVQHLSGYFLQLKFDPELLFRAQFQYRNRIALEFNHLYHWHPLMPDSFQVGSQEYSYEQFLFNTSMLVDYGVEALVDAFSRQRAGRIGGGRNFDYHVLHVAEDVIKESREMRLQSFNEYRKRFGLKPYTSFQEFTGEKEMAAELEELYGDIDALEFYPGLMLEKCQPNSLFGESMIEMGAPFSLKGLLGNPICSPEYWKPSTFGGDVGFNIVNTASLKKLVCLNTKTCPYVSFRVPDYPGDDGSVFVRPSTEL

[7] = molecular target: T1, Muscarinic acetylcholine receptor M1; assay type: functional, cell-based; remark: listed apart in the source
Also: assay procedure not described here.

Sequence of Histamine H1 receptor (P35367 whole entry): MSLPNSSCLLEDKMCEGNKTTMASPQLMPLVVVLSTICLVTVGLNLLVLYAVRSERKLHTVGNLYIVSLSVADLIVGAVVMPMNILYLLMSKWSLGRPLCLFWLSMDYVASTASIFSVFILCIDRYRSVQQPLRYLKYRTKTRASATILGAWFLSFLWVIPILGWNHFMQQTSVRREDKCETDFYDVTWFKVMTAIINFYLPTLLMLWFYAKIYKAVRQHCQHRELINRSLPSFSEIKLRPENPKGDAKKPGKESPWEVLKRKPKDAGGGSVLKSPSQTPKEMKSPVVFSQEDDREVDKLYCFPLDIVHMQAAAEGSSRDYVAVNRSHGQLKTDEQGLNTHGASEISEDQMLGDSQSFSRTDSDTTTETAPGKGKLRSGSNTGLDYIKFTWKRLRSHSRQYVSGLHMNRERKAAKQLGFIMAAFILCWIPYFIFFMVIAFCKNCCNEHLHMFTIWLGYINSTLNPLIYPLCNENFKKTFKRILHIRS

Structure (SMILES): CCc1oc2ccccc2c1C(=O)c1cc(I)c(O)c(I)c1 [BENZIODARONE]
- AC50 [1]: > 30 µM

Structure (SMILES): O=C(OCC(O)CO)c1ccccc1Nc1ccnc2cc(Cl)ccc12 (stereo not drawn) [GLAFENINE]
- AC50 [2]: > 100 µM

Structure (SMILES): O=C(O[C@H]1C[C@H]2CC[C@@H](C1)[N+]21CCCC1)C(O)(c1ccccc1)c1ccccc1 [TROSPIUM]
- AC50 [5]: 2.7 nM
- AC50 [6]: > 30 µM
- AC50 [7]: > 30 µM

Further lines, results first:

- AC50 (Histamine H1 receptor): > 30 µM
Structure (SMILES): Nc1nc(NC2CC2)c2ncn([C@H]3C=C[C@@H](CO)C3)c2n1 [ABACAVIR]

- AC50 [3]: 8.4 nM
Structure (SMILES): CCCN1C[C@H](CSC)C[C@@H]2c3cccc4[nH]cc(c34)C[C@H]21 [PERGOLIDE]

- AC50 [4]: > 100 µM
Structure (SMILES): C1CCC(C(CC2CCCCN2)C2CCCCC2)CC1 (stereo not drawn) [PERHEXILINE]
